{
  "source": "patent US7883730B2",
  "about": "“Rumen protected lysine” (Zinpro Corporation, priority 2007, dated 2011)",
  "tested_on": "Lactating Holstein Dairy Cows",
  "experiment": "Feeding evaluation: lactation responses to N-Benzylidene-L-Lysine",
  "format": "in vivo",
  "from_the_text": "Evaluation of Feeding N-Benzylidene-L-Lysine Using Lactating Holstein Dairy Cows\nAll cows received the same base diet. Cows were assigned to one of two treatments: (1) control, (2) control+N-Benzylidene-L-Lysine (TrTA). N-Benzylidene-L-Lysine was supplemented at a rate to supply 40 g of Lys when cows consumed 53.0 lb dry matter/d. The control diet was formulated to be deficient of lysine. “P” refers to the probability value (p-value).",
  "key": {"[1]": {"conditions": "control diet deficient of lysine plus 40 g Lys from N-Benzylidene-L-Lysine, 14 days"}},
  "data": [
    {"smiles": "NCCCC[C@H](N=Cc1ccccc1)C(=O)O", "note": "[Trt A, N-Benzylidene-L-Lysine]", "values": [
      {"measurement": "ECM", "setting": "[1]", "result": 81.3, "unit": "lbs/d"},
      {"measurement": "FCM", "setting": "[1]", "result": 81.2, "unit": "lbs/d"},
      {"measurement": "Milk", "setting": "[1]", "result": 77.3, "unit": "lbs/d"},
      {"measurement": "ECM/Feed", "setting": "control diet plus 40 g Lys from N-Benzylidene-L-Lysine, 14 days", "result": 1.53},
      {"measurement": "Fat, %", "setting": "milk fat content, control diet plus 40 g Lys from N-Benzylidene-L-Lysine, 14 days", "result": 3.81, "unit": "%"},
      {"measurement": "Fat, lbs/d", "setting": "milk fat yield, control diet plus 40 g Lys from N-Benzylidene-L-Lysine, 14 days", "result": 2.94, "unit": "lbs/d"},
      {"measurement": "Protein, %", "setting": "milk protein content, control diet plus 40 g Lys from N-Benzylidene-L-Lysine, 14 days", "result": 3.14, "unit": "%"},
      {"measurement": "Protein, lbs/d", "setting": "milk protein yield, control diet plus 40 g Lys from N-Benzylidene-L-Lysine, 14 days", "result": 2.41, "unit": "lbs/d"},
      {"measurement": "Lactation response versus control (conclusion in words)", "setting": "versus lysine-deficient control diet, from Table 1 data", "result": "produced more milk, more protein and more fat"}
    ]}
  ]
}
